Test results from article PMC11705955, “Lack of activity of HIV-1 integrase strand-transfer inhibitors on recombinase activating gene (RAG) activity at clinically relevant concentrations” (Microbiology Spectrum, 2024).
Entries after “also recorded” stand apart in the source; their conditions may differ. Like-named read-outs stand apart in the source and are kept apart here.

Tests used:
[1] = test system: murine mCherry-core RAG1 / mCherry-RAG2 V(D)J recombination in Expi293F cells; assay: Extrachromosomal cell-based V(D)J recombination assay (GFP reporter, flow cytometry); conditions: for Effect on percentage of GFP-positive cells / RAG recombination: across concentrations tested, 48 h post-transfection
Source text: To further evaluate the effect of HIV-1 integrase inhibitors on RAG activity in a cellular context, we optimized a novel extrachromosomal cell-based V(D)J recombination assay, enabling assessment of multiple compounds in a dose–response manner by flow cytometry ([33]). The schematic of FL murine RAG1 and RAG2 proteins, including the active site residues (DDE motif) in RAG1 and catalytically essential core regions of each protein, are shown in Fig. 5A. The cell-based assay used vectors that encode for the core RAG1 protein (instead of the FL version) and FL murine RAG2 expressed as C-terminal fusions to mCherry, termed mCherry-core RAG1 and mCherry-RAG2. The core regions of each RAG protein are sufficient to catalyze V(D)J recombination, whereas the non-core regions function to regulate the recombination reaction ([13]). […] The consensus RSS used in this assay contains a conserved heptamer and nonamer separated by 12 or 23 non-conserved bp (12RSS and 23RSS) (Fig. 5B). A general schematic of the design for the plasmid substrate with the 12RSS and 23RSS orientations before and after V(D)J recombination is presented in Fig. 5C. More specifically, the plasmid substrate pMAXgfp-INV was designed with a 12RSS and a 23RSS flanking each side of the Pontellina plumata green fluorescent protein gene (termed maxGFP), where the gene is in an inverted orientation relative to the CMV promoter (Fig. 5D). The RSSs are positioned in a co-linear orientation, such that successful V(D)J recombination activity will result in inversion of the maxGFP gene to place it in a transcriptionally active orientation with resulting expression of GFP. Detection of GFP-expressing cells using microscopy and flow cytometry was used as a direct readout of V(D)J recombination activity.
For the recombination assay, the pMAXgfp-INV plasmid substrate and RAG1/RAG2 expression vectors (mCherry-core RAG1 and mCherry-RAG2) were transiently transfected into Expi293 cells in the absence or presence of integrase inhibitors and were assessed via microscopy and flow cytometry. The fluorescence signal from the mCherry-tag is used to assess transfection efficiency of RAG1/RAG2 vectors (Fig. 6A). We observed that transfection of the pMAXgfp-INV substrate into Expi293 cells with RAG1/RAG2 expression vectors yielded robust GFP expression 48 h post-transfection in the cells treated with vehicle control (0.1% dimethyl sulfoxide [DMSO]) (Fig. 6A). […] NU7026 inhibits double-strand break repair, which is a necessary step after DNA cleavage by RAG enzymes, and thus serves as an indirect inhibitor of RAG activity ([35]).
To test the effect of HIV-1 integrase inhibitors on V(D)J recombination activity, we optimized an extrachromosomal cell-based V(D)J recombination assay ([33]). Briefly, Expi293 cells were plated at 1 × 10^6 cells/mL in six-well plates in Gibco Expi293 expression media the day before transfection. The next day, the Expi293 cells were co-transfected with three separate vectors, pMAXgfp-INV plasmid substrate, mCherry-core RAG1, and mCherry-RAG2 expression vectors with a 4:1 transfection reagent:DNA ratio using ExpiFectamine 293 transfection reagent (Gibco). Vehicle or candidate inhibitors were added to cell samples 2 h after transfection, with six different concentrations of each inhibitor added to separate wells. Fivefold dilutions for each inhibitor starting from 10 µM were tested.
Experiments were performed with six separate inhibitors in at least three independent experiments. Two negative control conditions for recombination activity were performed in parallel and include (i) transfections in the presence of NU7026 at 30 and 50 µM (Abcam) and (ii) using a modified pMAXgfp-INV substrate containing two 12RSSs (instead of one 12RSS and one 23RSS) that is inefficiently recombined by the RAG proteins. Vehicle control (0.1% DMSO) served as the positive control for GFP expression. The fluorescence signal from the mCherry tag was used to assess transfection efficiency. […]

[2] = 5-day cytotoxicity assay with Cell Titer Glo readout, Expi293F; assay type: cell-based; conditions: human
Source text: (§1) Supplemental Table S2. CC50 values for INSTIs in 5- day cytotoxicity as says with Cell Titer
(§2) Expi293F GALPC3 GALHEP HUH7 MRC5 MT4 PBMC PBMC
(§3) Kidney Prostate Hepatoma Hepatoma Lung T-cell line Primary Primary
(§4) (embryonic) cancer cell cell line cell line fibroblast cells

[3] = 5-day cytotoxicity assay with Cell Titer Glo readout, GALHEPG2; assay type: cell-based; conditions: human
Source text: as §1, §2, §3, §4

[4] = 5-day cytotoxicity assay with Cell Titer Glo readout, HUH7; assay type: cell-based; conditions: human
Source text: as §1, §2, §3, §4

[5] = 5-day cytotoxicity assay with Cell Titer Glo readout, MRC5; assay type: cell-based; conditions: human
Source text: as §1, §2, §3, §4

[6] = 5-day cytotoxicity assay with Cell Titer Glo readout, MT4; assay type: cell-based; conditions: human
Source text: as §1, §2, §3, §4

[7] = 5-day cytotoxicity assay with Cell Titer Glo readout, PBMC; assay type: cell-based
Source text: as §1, §2, §3, §4

PBMC primary cells = assay: as above; assay type: cell-based
Source text: as §1, §2, §3, §4

Expi293F cells = assay: Cell viability (CellTiterGlo) in the cellular RAG assay; assay type: cell-based, human; conditions: 48 hours after transfection, up to 10 µM (p8 up to 50 µM)
Method: After 48-h incubation at 37°C in a humidified 8% CO2 incubator, 100 µL of cell suspension was transferred to 96-well black assay plates (Corning). Each well of the assay plates then received 100 µL CellTiterGlo reagent and the resulting luminescence signal was read using the PHERAstar FSX plate reader (BMG Labtech, Germany).
Supplemental Figure S4. Cytotoxicity analysis of INSTIs in the cellular RAG assay using […]
Concentration (μM) Concentration (μM) Concentration (μM)
Expi293F cells were co-t ransfected with pMAXgfp- INV plasmid substrate, mCherry- core RAG1 , mCherry RAG2, with INSTIs added 2 hours after transfection. Six different concentrations of each […]
added to separate wells. % live cells normalized to 0.1% DMSO data are presented for INSTIs tested in cell viability (Cell- Titer Glo) assay 48 hours after transfection. BIC (n=5), CAB (n=3), concentrations tested. An ordinary one-way ANOVA with Dunnett's multiple comparisons test unmarked datapoints = not significant. […]
was used to compare % GFP levels to the DMSO control, *P ≤ 0.05, **P ≤ 0.01, ***P ≤ 0.001, (also on this page, place not known: live normalized 0.001 % live cells normalized DMSO 0.001 10 % live cells normalized DMSO 0.001 10 % live cells normalized to DMSO 0.001 10 % live cells normalized to DMSO E xpi293F cells co-transfected pMAXgfp-INV mCherry-core RAG1, 5-fold 10 to % live cells normalized to DMSO (n=3) one -way to % to DMSO)

Row | SMILES | Effect on percentage of GFP-positive cells / RAG recombination [1] | CC50 at 5 day [2] | CC50 at 5 day [3] | CC50 at 5 day [4] | CC50 at 5 day [5] | CC50 at 5 day [6] | CC50 at 5 day ([7]; CC50) | CC50 (PBMC primary cells; 5 day) | Cellular toxicity, % live cells normalized to 0.1% DMSO (Expi293F cells) | CC50 at 5 day ([2]; Expi293F, 5-day, Cell Titer Glo, read-out: CC50) | CC50 at 5 day ([3]; GALHEPG2, 5-day, Cell Titer Glo, read-out: CC50) | CC50 at 5 day ([4]; HUH7, 5-day, Cell Titer Glo, read-out: CC50) | CC50 at 5 day ([5]; MRC5, 5-day, Cell Titer Glo, read-out: CC50) | CC50 at 5 day ([6]; MT4, 5-day, Cell Titer Glo, read-out: CC50) | CC50 at 5 day ([7]; PBMC Lot1, 5-day, Cell Titer Glo, read-out: CC50) | CC50 (PBMC primary cells; PBMC Lot2, 5-day, Cell Titer Glo, read-out: CC50) | IC50 ([1]; Mus musculus, Expi293F, compound added 2 h after transfection, read 48 h post-transfection, serum-free media, read-out: IC50 in cellular V(D)J recombination assay (% GFP-positive cells))
1 | O=C(NCc1c(F)cc(F)cc1F)c1cn2c(c(O)c1=O)C(=O)N1[C@H]3CC[C@H](C3)O[C@@H]1C2 [BIC, bictegravir] | did not observe a reduction in percentage of GFP-positive cells; also recorded: do not show inhibitory activity | 46 µM | 17.4 µM | 38 µM | > 44.4 µM | 2.59 µM | 28.5 µM | 24.2 µM | minimal effects on cellular toxicity | – | – | – | – | – | – | – | –
2 | COc1cc2c(cc1Cc1cccc(Cl)c1F)c(=O)c(C(=O)O)cn2[C@H](CO)C(C)C [EVG, elvitegravir] | do not show inhibitory activity | 32.5 µM | 9.02 µM | 20.4 µM | 14.3 µM | 3.75 µM | 14.6 µM | 14.1 µM | minimal effects on cellular toxicity | – | – | – | – | – | – | – | –
3 | C[C@@H]1CCO[C@H]2Cn3cc(C(=O)NCc4ccc(F)cc4F)c(=O)c(O)c3C(=O)N12 [DTG, dolutegravir] | did not observe a reduction in percentage of GFP-positive cells; also recorded: do not show inhibitory activity | 53.6 µM | > 44.4 µM | 28.7 µM | 38.2 µM | 7.53 µM | 28.4 µM | 17.9 µM | minimal effects on cellular toxicity | – | – | – | – | – | – | – | –
4 | C[C@H]1CO[C@@H]2Cn3cc(C(=O)NCc4ccc(F)cc4F)c(=O)c(O)c3C(=O)N12 [CAB, cabotegravir] | did not observe a reduction in percentage of GFP-positive cells; also recorded: do not show inhibitory activity | > 100 µM | 37.9 µM | 21.5 µM | 28.1 µM | 5.25 µM | 30 µM | 29.5 µM | minimal effects on cellular toxicity | – | – | – | – | – | – | – | –
5 | Cc1nnc(C(=O)NC(C)(C)c2nc(C(=O)NCc3ccc(F)cc3)c(O)c(=O)n2C)o1 [RAL, raltegravir] | did not observe a reduction in percentage of GFP-positive cells; also recorded: do not show inhibitory activity | – | – | – | – | – | – | – | minimal effects on cellular toxicity | > 100 µM | > 44.4 µM | > 44.4 µM | > 44.4 µM | > 50 µM | > 44.3 µM | > 44.3 µM | –
6 | O=C(/C=C(\O)c1nnn[nH]1)c1c[nH]c2ccc(Cl)cc12 [p8, 5-CITEP] | – | > 100 µM | > 44.4 µM | > 44.4 µM | > 44.4 µM | > 50 µM | > 44.3 µM | > 44.3 µM | minimal effects on cellular toxicity | – | – | – | – | – | – | – | > 50 µM
